System: blood coagulation
Assay: PT and aPTT assay in cynomolgus monkeys (Example 45)
Type: in vivo
Settings: escalating dose regimen, platelet poor plasma
Description: Groups, each consisting of two male and three female monkeys, were injected subcutaneously with ISIS 416838, ISIS 416850, ISIS 416858, ISIS 416864, or ISIS 417002 in escalating doses. Antisense oligonucleotide was administered to the monkeys at 5 mg/kg three times per a week for week 1; 5 mg/kg twice per week for weeks 2 and 3; 10 mg/kg three times per week for week 4; 10 mg/kg twice per week for weeks 5 and 6; 25 mg/kg three times per week for week 7; and 25 mg/kg twice per week for weeks 8, 9, 10, 11, and 12. One control group, consisting of two male and three female monkeys, was injected subcutaneously with PBS according to the same dosing regimen. An additional experimental group, consisting of two male and three female monkeys, was injected subcutaneously with ISIS 416850 in a chronic, lower dose regimen. Antisense oligonucleotide was administered to the monkeys at 5 mg/kg three times per week for week 1; 5 mg/kg twice per week for week 2 and 3; 10 mg/kg three times per week for week 4; and 10 mg/kg twice per week for weeks 5 to 12. Body weights were measured weekly. Blood samples were collected 14 days and 5 days before the start of treatment and subsequently once per week for Factor 11 protein activity analysis in plasma, fibrinogen measurement, PT and aPTT measurements, bleeding times, and measurement of various hematologic factors. On day 85, the monkeys were euthanized by exsanguination while under deep anesthesia, and organs harvested for further analysis.
Blood samples were collected in tubes containing sodium citrate. PT and aPTT were determined in duplicate with an ACL 9000 coagulation instrument (Instrumentation Laboratory, Italy). The results were interpolated on a standard curve of serial dilutions citrated control monkey plasma tested to give a reported result in percent normal.
Prothrombin Time (PT) and Activated Partial Thromboplastin Time (aPTT) were measured using platelet poor plasma (PPP) from monkeys treated with ISIS oligonucleotides. PT and aPTT values are provided in Tables 116 and 117 and are reported as International Normalized Ratio (INR) values. INR values for PT and aPTT were determined by dividing the PT or aPTT value for each experimental group by the PT or aPTT for the PBS treated group. This ratio was then raised to the power of the International Sensitivity Index (ISI) of the tissue factor used. The ISIS oligonucleotide, ISIS 416850, given with the chronic dose regimen is distinguished from the other oligonucleotides with an asterisk (*).

Row | Substance | PT ratio (INR) (day 8) | aPTT ratio (INR) (day 8) | PT ratio (INR) (day 15) | aPTT ratio (INR) (day 15) | PT ratio (INR) (day 22) | aPTT ratio (INR) (day 22) | PT ratio (INR) (day 29) | aPTT ratio (INR) (day 29) | PT ratio (INR) (day 36) | aPTT ratio (INR) (day 36) | PT ratio (INR) (day 43) | aPTT ratio (INR) (day 43) | PT ratio (INR) (day 50) | aPTT ratio (INR) (day 50) | PT ratio (INR) (day 57) | aPTT ratio (INR) (day 57) | PT ratio (INR) (day 64) | aPTT ratio (INR) (day 64) | PT ratio (INR) (day 71) | aPTT ratio (INR) (day 71) | further results
1 | ISIS 416838: MOE gapmer, nucleobases 1018 to 1042 of SEQ ID NO: 1 (Table 6) (antisense GCAACCGGGATGATGAGTGC; MOE gapmer, wing and gap sizes not given here) | 1.03 | 1.07 | 1.03 | 1.05 | 1.07 | 1.20 | 1.03 | 1.19 | 1.05 | 1.20 | 1.03 | 1.18 | 1.02 | 1.25 | 1.04 | 1.21 | 1.04 | 1.18 | 1.02 | 1.15 | PT ratio (INR) (day 78): 1.04; aPTT ratio (INR) (day 78): 1.19; PT ratio (INR) (day 85): 1.05; aPTT ratio (INR) (day 85): 1.22; PT ratio (INR) (day −5): 1.00; aPTT ratio (INR) (day −5): 1.00; PT ratio (INR) (day −14): 1.00; aPTT ratio (INR) (day −14): 1.00
2 | ISIS 416858: MOE gapmer, nucleobases 1275 to 1318 of SEQ ID NO: 1 (Table 8) (antisense ACGGCATTGGTGCACAGTTT; MOE gapmer, wing and gap sizes not given here) | 1.05 | 1.03 | 1.07 | 1.07 | 1.06 | 1.18 | 1.08 | 1.20 | 1.07 | 1.36 | 1.08 | 1.28 | 1.03 | 1.55 | 1.09 | 1.59 | 1.09 | 1.60 | 1.07 | 1.70 | PT ratio (INR) (day 78): 1.10; aPTT ratio (INR) (day 78): 1.79; PT ratio (INR) (day 85): 1.07; aPTT ratio (INR) (day 85): 1.76; PT ratio (INR) (day −5): 1.00; aPTT ratio (INR) (day −5): 1.00; PT ratio (INR) (day −14): 1.00; aPTT ratio (INR) (day −14): 1.00
3 | ISIS 417002: MOE gapmer, nucleobases 1275 to 1318 of SEQ ID NO: 1 (Table 8) (antisense GGTGCACAGTTTCTGGCAGG; MOE gapmer, wing and gap sizes not given here) | 1.02 | 1.05 | 1.04 | 1.03 | 1.04 | 1.16 | 1.01 | 1.11 | 1.05 | 1.18 | 1.03 | 1.06 | 0.99 | 1.18 | 1.03 | 1.22 | 1.03 | 1.11 | 0.99 | 1.16 | PT ratio (INR) (day 78): 1.02; aPTT ratio (INR) (day 78): 1.18; PT ratio (INR) (day 85): 1.02; aPTT ratio (INR) (day 85): 1.20; PT ratio (INR) (day −5): 1.00; aPTT ratio (INR) (day −5): 1.00; PT ratio (INR) (day −14): 1.00; aPTT ratio (INR) (day −14): 1.00
4 | ISIS 416864: MOE gapmer, nucleobases 1275 to 1318 of SEQ ID NO: 1 (Table 8) (antisense GGCAGCGGACGGCATTGGTG; MOE gapmer, wing and gap sizes not given here) | 1.02 | 1.05 | 1.07 | 1.03 | 1.03 | 1.11 | 1.06 | 1.13 | 1.06 | 1.19 | 1.04 | 1.07 | 1.01 | 1.26 | 1.08 | 1.19 | 1.10 | 1.12 | 1.07 | 1.18 | PT ratio (INR) (day 78): 1.08; aPTT ratio (INR) (day 78): 1.18; PT ratio (INR) (day 85): 1.13; aPTT ratio (INR) (day 85): 1.25; PT ratio (INR) (day −5): 1.00; aPTT ratio (INR) (day −5): 1.00; PT ratio (INR) (day −14): 1.00; aPTT ratio (INR) (day −14): 1.00
